Molecules are shown by their SMILES. Where two headings read alike, the source gives them in different places.

Experiment [1] deals with T1, Tet(X4) (Escherichia coli, UniProt A0A3T0V9Y5). Put plainly: FP competitive displacement of probe 6. The following applies: for IC50: 25 nM 6, 40 nM Tet(X4), 5 mM MgCl2, 1 μM FAD, 100 mM Tris pH 7.0, 0.01% Triton X-100; for displacement of probe 6 / competitive binding (in words): up to a maximum concentration of 100 μM. In kind it is binding. Summed up: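 FP displacement of probe 6 (added as 50 nM solution) from Tet(X4) (2× mix: 80 nM enzyme, 2 μM FAD, 10 mM MgCl2), 30 min at ambient temperature. Dose-response used 3-fold, 10-point DMSO series (top 5 or 0.5 mM stock). IC50^app came from a Hill fit of control-normalised response. Library screening used 10 μM compound, 0.1% DMSO, […].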

In experiment [2] the target is T1, Tet(X4). Kind of experiment: Absorbance activity assay (tigecycline turnover, A400). Type of experiment: biochemical. Particulars: for inhibition in the absorbance assay (in words): AZT up to 1 mM. An excerpt: We then tested the binding of reported type 1 TDase inhibitors to Tet(X4) (Fig. 3f, ESI Fig. S17 ^†).[33,38,39] […] These compounds gave similar apparent IC50^app values, in accord with trends in IC50 measurements performed by Markley et al.[33] […] We also developed a complementary endpoint activity assay where the turnover of tigecycline by Tet(X4) in a 96-well plate was quenched by addition of 1%v/v formic acid and analysed chromatographically. The peak integrals of tigecycline and its hydroxylated degradation product at 254 nm following UPLC analysis were measured to determine turnover (Fig. 5a). As this method separates components by chromatography, it enables IC50 measurements independent of potential interference from UV-active inhibitors (Fig. 5b). […] The apparent synergy of AZT with tetracyclines against whole cells expressing Tet(X4)[40] is therefore interesting and may derive from the proposed ability of AZT to interfere with DNA synthesis in bacteria,[40,53] or other unidentified mechanisms. […] Note, however, that plumbagin and 2-MNQ are naphthoquinones, which are well-characterised redox-active pan-assay interference (PAINS) moieties.[54]
233 Absorbance Activity Assays
234 A solution containing 100 mM TAPS (pH 8.5), 2 µM FAD, 10 mM MgCl2 and 100 nM Tet(X4) was
235 dispensed into a 384 well µClear plate (Greiner Bio-One), 25 µL per well, using a microplate reagent
236 dispenser. A 3-fold, 10-point dilution series of the substrates and inhibitors was made in DMSO with
237 the highest concentration of 50 mM, unless otherwise stated, and transferred to the enzyme solution in
238 technical quadruplicate using a CyBi-Well (CyBio) liquid-handling robot (1 µL per well). On each plate,
239 a column of no enzyme negative controls and no inhibitor (DMSO only) positive controls were
240 included. The plate was briefly centrifuged (1000 rpm), then incubated (ambient temperature,15 min).
241 A solution containing 100 mM TAPS (pH 8.5), 50 µM tigecycline and 500 µM NADPH was then
242 dispensed, with 25 µL per well. The plate was briefly centrifuged (1000 rpm), then transferred to a
243 CLARIOstar Plus Microplate reader. The absorbance was monitored at wavelength […] over the
244 course of 2 hours (23 flashes / cycle, 180 s cycle time, 41 data points, 25 ° C). The initial rate was
245 calculated by measuring the rate of change of A400 during the initial linear regime. Initial rates were
246 normalised between positive and negative controls. The normalised % response was plotted as a
247 function of log10([Inhibitor]) in molar units, and the IC50 was determined as above. […]

Experiment [3] deals with T1, Tet(X4). Put plainly: biochemical. The protocol: We then tested the binding of reported type 1 TDase inhibitors to Tet(X4) (Fig. 3f, ESI Fig. S17 ^†).[33,38,39] […] We also developed a complementary endpoint activity assay where the turnover of tigecycline by Tet(X4) in a 96-well plate was quenched by addition of 1%v/v formic acid and analysed chromatographically. The peak integrals of tigecycline and its hydroxylated degradation product at 254 nm following UPLC analysis were measured to determine turnover (Fig. 5a).
[…] A 3-fold, 10-point dilution series of the substrates and inhibitors was made in DMSO with a top concentration of 10 mM, unless otherwise stated, and transferred to the enzyme solution using a CyBi-Well liquid-handling robot (CyBio), 1 μL per well. On each plate, a column of no enzyme negative controls and no inhibitor (DMSO only) positive controls were included. The plate was incubated at 30 °C for 15 min. A solution containing 100 mM TAPS (pH 8.5), 40 μM tigecycline and 200 μM NADPH was then dispensed, with 49 μL per well. The plate was incubated at 30 °C for 20 min at 600 rpm. 10 μL of 10%v/v formic acid solution was then dispensed into all wells. Samples were analysed using an ACQUITY H-Class PLUS UPLC instrument (Waters) equipped with a pre-equilibrated ACQUITY BEH C18 column ([…], […], Waters) using a gradient of 1–50%v/v acetonitrile with 0.1%v/v formic acid in water with 0.1%v/v formic acid over 1.83 minutes at a flow rate of 0.5 mL min^−1. Instrument control and data processing were performed using MassLynx V4.1 software. The peaks representing tigecycline and 11a-hydroxy-tigecycline were integrated, used to calculate % conversion and then normalised between positive and negative controls. The normalised % response was plotted as a function of log10[Inhibitor], and the IC50 determined as described above.

The target of experiment [4] is T1, Tet(X4). Kind of experiment: Fluorescence polarisation binding assay of probes with purified TDase. The following applies: 25 nM probe, 5 mM MgCl2, 1 μM FAD, 100 mM Tris pH 7.0, 0.01% Triton X-100; read-out: Kd. The protocol:
(§1) NADPH was not included to prevent turnover of the probe to the hydroxylated product, which would likely have a lower binding affinity than the initial probes. Screens were conducted in pH 7.0 buffer with addition of 0.01% Triton-X100 detergent in non-binding plates to minimise adsorption to the plate wells.[45]
Aliquots of TDases were thawed and serially diluted with the assay buffer (100 mM Tris, pH 7.0 with 0.01% Triton X-100) in a V-bottom 96-well plate (Greiner Bio-One). 12.5 μL of each concentration of enzyme was transferred in quadruplicate to a 384-well black, non-binding microtiter plate (Greiner Bio-One). […] 12.5 μL of this solution was added to wells containing enzyme. A negative control of 12.5 μL of the probe solution with 12.5 μL of the assay buffer was included on each plate. The plate was briefly centrifuged (1000 rpm), then incubated at ambient temperature for 30 min before measuring the FP response using a PHERAstar FS microplate reader (BMG Labtech) equipped with an FP optic module (excitation = 540 ± 20 nm, Emission = 590 ± 20 nm, 200 flashes per well). ΔmP values were calculated by subtracting the average mP of the negative controls from the mP measured for each well. To calculate Kd values, the derived ΔmP values were plotted as a function of enzyme concentration and a one-site specific binding model was applied (GraphPad Prism 9.4.1).
(In general: Polarisation of emitted light reports the rotation of a fluorescent probe.)

A further experiment addresses T2, Tet(50) (Unknown prokaryotic organism, UniProt A0A059WYP6).
T2 construct: made in house; host or cells: E. coli BL21(DE3)
Described as above. The protocol: as §1
(§2) Aliquots of TDases were thawed and serially diluted with the assay buffer (100 mM Tris, pH 7.0 with 0.01% Triton X-100) in a V-bottom 96-well plate (Greiner Bio-One). 12.5 μL of each concentration of enzyme was transferred in quadruplicate to a 384-well black, non-binding microtiter plate (Greiner Bio-One). Aliquots of 2 mM stock of fluorescent probes 5 and 6 in DMSO were thawed and diluted to 50 nM in the assay buffer with 2 μM FAD and 10 mM MgCl2. 12.5 μL of this solution was added to wells containing enzyme. A negative control of 12.5 μL of the probe solution with 12.5 μL of the assay buffer was included on each plate. The plate was briefly centrifuged (1000 rpm), then incubated at ambient temperature for 30 min before measuring the FP response using a PHERAstar FS microplate reader (BMG Labtech) equipped with an FP optic module (excitation = 540 ± 20 nm, Emission = 590 ± 20 nm, 200 flashes per well). ΔmP values were calculated by subtracting the average mP of the negative controls from the mP measured for each well. To calculate Kd values, the derived ΔmP values were plotted as a function of enzyme concentration and a one-site specific binding model was applied (GraphPad Prism 9.4.1).

Another experiment concerns the target T3, Tet(X2) (Bacteroides thetaiotaomicron, UniProt Q93L51).
T3 construct: For Tet(X2), the full-length protein was prepared rather that the Δ1–10 mutant used previously for crystallographic studies; made in house; host or cells: E. coli BL21(DE3)
The description is as above. The protocol: as §1, §2

The target in another experiment is Tet(X5). The experiment is described as above. Particulars: 25 nM probe, 5 mM MgCl2, 1 μM FAD, 100 mM Tris pH 7.0, 0.01% Triton X-100. The protocol:
as §1, §2

The target in the next experiment is Tet(X7). The description is as above. The following applies: 25 nM probe, 5 mM MgCl2, 1 μM FAD, 100 mM Tris pH 7.0, 0.01% Triton X-100. The protocol:
as §1, §2

Setting [5] is: 25 μM tigecycline, 50 nM Tet(X4), 250 μM NADPH, 5 mM MgCl2, 1 μM FAD, 100 mM TAPS pH 8.5, read-out: IC50, Absorbance assay.
Setting [6] is: 20 μM tigecycline, 50 nM Tet(X4), 100 μM NADPH, 5 mM MgCl2, 1 μM FAD, 100 mM TAPS pH 8.5, read-out: IC50, UPLC assay.

Turning to `COC1=CC(=O)c2ccccc2C1=O` [2-Methoxy-1,4-naphthoquinone], the IC50 was over 100 µM on Tet(X4) [1] (IC50app, FP assay); 421 ± 50 µM at Tet(X4) [2] (setting [5]); over 100 µM at Tet(X4) [3] (setting [6]). Also, the “displacement of probe 6 / competitive binding (in words)” value at Tet(X4) [1] was “minimal competitive binding”. In addition, on Tet(X4) [2], the “inhibition in the absorbance assay (in words)” value is listed as “weak”. Also, the “inhibition in the UPLC assay (in words)” value against Tet(X4) [3] (AZT up to 100 μM) is “weak”.

Consider `Cc1c2c(c(O)c3c(O)c(Br)ccc13)C(=O)[C@@]1(O)C(=O)C(C(N)=O)=C(O)[C@@H](N(C)C)[C@@H]1C2` [9-Bromo-anhydrotetracycline], for which the IC50 at Tet(X4) [1] (read-out: IC50app, FP assay) was found to be 0.0404 ± 0.0105 µM; at Tet(X4) [2] (setting [5]) it was 4.5 ± 0.6 µM; on Tet(X4) [3] (setting [6]), 2.7 ± 0.5 µM. Also, the “displacement of probe 6 / competitive binding (in words)” value on Tet(X4) [1] is “clear dose-dependent displacement”.

For `Cc1cn([C@H]2C[C@H](N=[N+]=[N-])[C@@H](CO)O2)c(=O)[nH]c1=O` [Azidothymidine], the IC50 on Tet(X4) [1] (IC50app, FP assay) was over 100 µM; at Tet(X4) [2], over 1000 µM; against Tet(X4) [3] (IC50, UPLC assay) it was over 100 µM. The “displacement of probe 6 / competitive binding (in words)” value on Tet(X4) [1] is given as “minimal competitive binding”. In addition, the “inhibition in the absorbance assay (in words)” value at Tet(X4) [2] is on record as “No inhibition”. In addition, the “inhibition in the UPLC assay (in words)” value against Tet(X4) [3] is reported as “No inhibition”.

Consider `CC1=CC(=O)c2c(O)cccc2C1=O` [Plumbagin], for which the IC50 at Tet(X4) [1] (IC50app, FP assay) was over 100 µM; on Tet(X4) [2] it was 49.1 ± 4.9 µM; on Tet(X4) [3] (setting [6]) it was 37.2 ± 8.2 µM. Besides, the “displacement of probe 6 / competitive binding (in words)” value on Tet(X4) [1] was “minimal competitive binding”. The “inhibition in the absorbance assay (in words)” value on Tet(X4) [2] was “moderate”. Moreover, the “inhibition in the UPLC assay (in words)” value on Tet(X4) [3] (AZT up to 100 μM) is “moderate”.

As usually defined, the Kd is the constant that tells how readily two partners part at equilibrium. For `CN(C)c1ccc2c(-c3ccc(C(=O)NCC(=O)Nc4cc(N(C)C)c5c(c4O)C(=O)C4=C(O)[C@]6(O)C(=O)C(C(N)=O)=C(O)[C@H](N(C)C)[C@@H]6C[C@@H]4C5)cc3C(=O)[O-])c3ccc(=[N+](C)C)cc-3oc2c1` [Probe 5], the Kd on Tet(X4) [4] is 0.0465 ± 0.0041 µM; at Tet(50) (25 nM probe, 5 mM MgCl2, 1 μM FAD, 100 mM Tris pH 7.0, 0.01% Triton X-100) it was over 5 µM; at Tet(X2) it was 0.0669 ± 0.0103 µM; on Tet(X5), 0.0299 ± 0.0027 µM; on Tet(X7), 0.126 ± 0.015 µM. Besides, the “binding to Tet(50) (in words)” value on Tet(50) (up to a concentration of 5 μM of enzyme) is reported as “no detectable binding”.

The values above are taken from article PMC12056667 (Chemical Science, 2025).
